Experimental data reported in US20060269924A1, “Modulation of telomere-initiated cell signaling” (TRUSTEES OF BOSTON UNIVERSITY, priority 2003, published 2006).
{P} = phosphate

Columns and labels:
[1] = test system: p95 phosphorylated at serine 343; test: p95 serine 343 phosphorylation after tankyrase siRNA, western blotting and densitometry; type: cell-based, human; details: 24 hours
Procedure: Paired cultures of human fibroblasts were treated once with tankyrase siRNA, with a non-specific siRNA (control) or were mock transfected as a second control. […] After an additional 24 hours, cells were collected and processed for western blotting using an antibody specific for p95 phosphorylated at serine 343, indicating p95 modification by activated ATM kinase. The film was then subjected to densitometry and the diluent control for each group of cells was set at 1.0 in arbitrary units (FIG. 19). As expected, in cells with normal tankyrase levels the T-oligo treated cells had twice the amount of phosphorylated p95, while the control oligo-treated or diluent-treated cells had only a 30-40% increase.

Jurkat cells = test: FACS analysis of propidium iodide stained Jurkat cells (cell cycle, sub-G0/G1 apoptosis); type: cell-based, human
Procedure: FIGS. 1A-1H show FACS analysis of propidium iodide stained Jurkat cells (immortalized T lymphocytes), treated with diluent (FIGS. 1A and 1E); 40 μM 11mer-1 pGTTAGGGTTAG (SEQ ID NO: 2) (FIGS. 1B and 1F); 40 μM 11mer-2 pCTAACCCTAAC (SEQ ID NO: 3) (FIGS. 1C and […]); 40 μM 11mer-3 pGATCGATCGAT (SEQ ID NO: 4) (FIGS. 1D and 1H). Jurkat cells were treated with the stated reagents for 48 hours before analysis (FIGS. 1A-1D) or 72 hours (FIGS. 1E-1H).
FIGS. 2A-2F are profiles showing the results of fluorescence activated cell sorting, for the following additions to the cells: FIG. 2A, diluent; FIG. 2B, 0.4 μM 11mer-1; FIG. 2C, 0.4 μM 11mer-1-S; FIG. 2D, diluent; FIG. 2E, 40 μM 11mer-1; FIG. 2F, 40 μM 11 mer-1-S.
Oligonucleotides homologous to the telomere overhang repeat sequence (TTAGGG; SEQ ID NO: 1), sequence (11mer-1: pGTTAGGGTTAG; SEQ ID NO: 2), complementary to this sequence (11mer-2: pCTAACCCTAAC; SEQ ID NO: 3) and unrelated to the telomere sequence (11mer-3: pGATCGATCGAT; SEQ ID NO: 4) were added to cultures of Jurkat cells, a line of human T cells reported to undergo apoptosis in response to telomere disruption. Within′ 48 hours, 50% of the cells treated with 40 μM of SEQ ID NO: 5 had accumulated in the S phase, compared to 25-30% for control cells (p<0.0003, non-paired t-test; see FIGS. 1A-1D), and by 72 hours, 13% of these cells were apoptotic as determined by a sub-G0/G1 DNA content, compared to 2-3% of controls (p<0.007, non-paired t-test; see FIGS. 1E-1H). At 96 hours, 20±3% of the 11mer-1 treated cells were apoptotic compared with 3-5% of controls (p<0.0001, non-paired t-test). To exclude preferential uptake of the 11mer-1 as an explanation of its singular effects, Jurkat cells were treated with oligonucleotides labeled on the 3′ end with fluorescein phosphoramidite, then subjected to confocal-microscopy and FACS analysis. The fluorescence intensity of the cells was the same after all treatments at 4 hours and 24 hours.
Cultures of Jurkat human T cells were treated with either diluent, 11mer-1 ([…]) or the phosphorothioate 11mer-1 (11mer-1-S) for 96 hours, then collected and processed for FACS analysis. Two concentrations of the oligonucleotides were tested, 0.4 μM (FIGS. 2A-2C) and 40 μM (FIGS. 2D-2F).

S91 mouse melanoma cells = test: Melanin content of S91 melanoma cells; type: cell-based; details: 40 μM, 6 days
Procedure: Cultures of S91 mouse melanoma cells (100,000 cells/38 cm^2) were treated with 100 μM pTpT or phosphorothioate pTpT (pTspT) (FIG. 4) or 40 μM 11mer-1 or the phosphorothioate 11mer-1 (11mer-1-S) (FIG. 5) for 6 days and were then collected, counted and assayed for melanin content.
Duplicate cultures of S91 cells (100,000 cells/39 cm^2) were either sham-irradiated or irradiated with 5 mJ/cm^2 solar-simulated light from a 1 kW xenon arc solar-simulator (XMN 1000-21, Optical Radiation, Azuza, Calif.) metered at 285±5 nm using a research radiometer (model IL1700A, International Light, Newburyport, Mass.). Two sham-irradiated plates were then supplemented with 100 μM pTspT and two irradiated cultures were similarly treated with pTspT. After one week, cells were collected, counted and analyzed for melanin content by dissolving the cell pellets in 1 N NaOH and measuring the optical density at 475 nm. […] However, this response was blocked by the addition of pTspT (FIG. 6). In addition, the constitutive pigmentation of these cells was reduced by the pTspT in the sham-irradiated cultures, similar to the data presented in FIGS. 4 and 5.

How did the “amount of phosphorylated p95 relative to diluent control” value ([1]; human fibroblasts with normal tankyrase levels) turn out when “pGTTAGGGTTAG (DNA, 5' {P}, backbone not given here; listed as Homo sapiens) [Oligonucleotide 11mer-1]” was run?
The value was “twice”.

And the “level of p95 phosphorylation (densitometry, diluent control set at 1.0)” value ([1]; tankyrase knockdown group (tankyrase siRNA))?
The value was 1.1 arbitrary units.

And the “effect on exponentially growing cell cycle profile” value (Jurkat cells; 0.4 μM, 96 hours)?
Its value is “neither of the oligonucleotides affected”.

What about the “cells accumulated in the S phase” value (Jurkat cells; 40 μM, 48 hours) of the same substance?
The value was 50%.

What about the “apoptotic cells (sub-G0/G1 DNA content)” value (Jurkat cells; 40 μM, 72 hours) of the same substance?
Its value is 13%.

And the “apoptosis (sub-G0/G1 peak)” value (Jurkat cells; 40 μM, 96 hours)?
The value was “induced extensive apoptosis”.

And the apoptotic cells (Jurkat cells; 96 hours)?
The apoptotic cells was 20±3%.

What about the “melanogenesis (melanin content)” value (S91 mouse melanoma cells) of the same substance?
Its value is “stimulated melanogenesis”.
